Earlier results, collected in article PMC12824232 (Nature Communications, 2025).

Key:
[1] = system: ER+/HER2− advanced breast cancer; conditions: patients with ESR1 mutations, phase 3 trial
[2] = system: patients with ER+/HER2− advanced breast cancer; conditions: phase 2 trial

SMILES	median PFS [1] [months]	patients with Grade 3/4 TRAEs [2] [%]
CCNCCc1ccc(CN(CC)c2cc(OC)ccc2[C@@H]2CCc3cc(O)ccc3C2)cc1 [elacestrant]	3.8	–
O=C1CC[C@H](N2Cc3cc(N4CCN(CC5CCN(c6ccc([C@@H]7c8ccc(O)cc8CC[C@@H]7c7ccccc7)cc6)CC5)CC4)ccc3C2=O)C(=O)N1 [vepdegestrant]	–	6
